Experimental data from US8759315B2, “Methods for rejuvenating” (Viacell, LLC, priority 2003, dated 2014).

How the values were obtained:
RBC [1] = details: 42 days of storage at 4° C.; D-ribose: 15mM D-ribose and 10 mM phosphate added to CPD; cited from earlier work
Whole blood = test: Rejuvenation of stored whole blood, DPG assay; type: cell-based
Procedure: (§1) The DPG assay was as follows: • To 2 mL Tris buffer with EDTA, was added 0.05 ml ATP 40 mM plus NADH 9.6 mM; 0.04 ml PGM (Sigma kit 665PA, Sigma, Inc. St. Louis, Mo.) and 0.1 ml RBC. The reaction mixture was allowed to equilibrate for five minutes at room temperature and the absorption at 339 nm wavelength was recorded. Next was added 0.02 ml PGM and 0.02 ml glycolate-2-phosphate. The reaction was allowed to proceed for 25 minutes and the absorption at 339 nm wavelength was recorded. The packed cell DPG equals (μmol/ml)×100 divided by the hematocrit.
An experiment was devised to determine whether the DPG levels could be brought back to approximate initial levels, that is, whether the RBC could be rejuvenated. Whole blood with heparin as anticoagulant was held at room temperature for 6 days, at which time DPG levels were undetectable. D-ribose at 10 mM was added and the blood was incubated at 37° C. for thirty minutes. […] The incubation time will be extended to determine whether the DPG levels can be further increased.

RBC [2] = test: Rejuvenation with D-ribose and phosphoenolpyruvate, DPG assay; type: cell-based; details: six days at room temperature, then 15 mM D-ribose, 10 mM to 100 mM PEP or both, 37°, 30 minutes; day 0 about 2 μmol/ml (FIG. 3)
Procedure: as §1
The rejuvenation experiment of Example 4 was repeated adding the high energy glycolysis intermediate phosphoenolpyruvate (PEP). Samples were held at for six days at room temperature until DPG levels were barely detectable. At that point, 15 mM D-ribose, 10 mM to 100 mM PEP or both were added and the blood incubated at 37° for 30 minutes. […] Adding PEP gave some benefit, raising the DPG levels to nearly 1 μmol/ml. Ribose also raised levels to about 1 μmol/ml. The effect of ribose plus PEP was additive: levels exceeded 1.5 μmol/ml, nearly the levels on day 0.

RBC [3] = test: Oxygen dissociation curve (P50) of stored and rejuvenated blood; type: cell-based; details: six-day CPD sample rejuvenated as for Example 3A (10 mM D-ribose, 37° C., thirty minutes)
Description: When the percent saturation of oxygen in blood is plotted against the partial pressure of oxygen (mmHg), the resulting curve is shown in FIG. 2. A shift to the right occurs when DPG is increased or pH is decreased. Consistent with the DPG experiments, the oxygen tension giving 50% saturation (P50) after six days storage in CPD was 43 mmHg. When this sample was rejuvenated as for Example 3A above, the P50 was 18.2 mmHg.

| Compound | 2,3 DPG level maintained, of its initial level (RBC [1]) | DPG after rejuvenation, as part of the usual initial value (Whole blood; whole blood with heparin held 6 days at room temperature (DPG undetectable), 10 mM D-ribose, 37° C., thirty minutes) | DPG levels after rejuvenation (RBC [2]) | oxygen tension giving 50% saturation (P50) (RBC [3]) | effect on rejuvenation (Whole blood; ribose reduced to one mM or increased to 100 mM, inosine substituted for ribose) |
| --- | --- | --- | --- | --- | --- |
| O=C[C@H](O)[C@H](O)[C@H](O)CO [D-ribose] | about 50% | about one-third | about 1 μmol/ml | 18.2 mmHg |  |
| C=C(OP(=O)(O)O)C(=O)O [PEP, phosphoenolpyruvate] |  |  | about 1 μmol/ml |  |  |
| OC[C@H]1O[C@@H](n2cnc3c(O)ncnc32)[C@H](O)[C@@H]1O [inosine] |  |  |  |  | equally beneficial effects on rejuvenation |
